Legend:
Format in all cases: in vivo
[1] = test system: redroot pigweed (Amaranthus retroflexus); test: Test G Pre-Emergence Protocol; details: Amaranthus retroflexus, pre-emergence, 312 h, evaluated after 13 days
Outline: (§1)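 Pots of seeds in standard soil were grown for one day in a glasshouse (24/16 °C day/night, 14 h light, 65% humidity), then sprayed with compound in acetone/water 50:50 with 0.5% Tween 20 at 15.625, 62.5 or 250 g/ha. Damage was scored after 13 days on a 0 (none) to 100 (total) scale.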

[2] = test system: barnyardgrass (Echinochloa crus-galli); test: Test G Pre-Emergence Protocol; details: Echinochloa crus-galli, pre-emergence, 312 h, evaluated after 13 days
Outline: as §1

[3] = test system: corn (Zea mays); test: Test G Pre-Emergence Protocol; details: Zea mays, pre-emergence, 312 h, evaluated after 13 days
Outline: as §1

[4] = test system: ivy-leaved morning glory (Ipomoea hederacea); test: Test G Pre-Emergence Protocol; details: Ipomoea, pre-emergence, 312 h, evaluated after 13 days
Outline: as §1

[5] = test system: giant foxtail (Setaria faberi); test: Test G Pre-Emergence Protocol; details: Setaria faberi, pre-emergence, 312 h, evaluated after 13 days
Outline: as §1

[6] = test system: velvetleaf (Abutilon theophrasti); test: Test G Pre-Emergence Protocol; details: Abutilon theophrasti, pre-emergence, 312 h, evaluated after 13 days
Outline: as §1

[7] = test system: redroot pigweed (Amaranthus retroflexus); test: Test G Post-Emergence Protocol; details: Amaranthus retroflexus, post-emergence, 312 h
Outline: (§2)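 Pot-grown seedlings, 8 days old, raised in a glasshouse at 24/16 °C day/night with 14 h light and 65% humidity, were sprayed post-emergence with test compound in acetone/water (50:50) plus 0.5% Tween 20 at 15.625, 62.5 or 250 g/ha. Damage was scored visually 13 days later on a 0–100 scale (100 = total damage).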

[8] = test system: barnyardgrass (Echinochloa crus-galli); test: Test G Post-Emergence Protocol; details: Echinochloa crus-galli, post-emergence, 312 h
Outline: as §2

[9] = test system: corn (Zea mays); test: Test G Post-Emergence Protocol; details: Zea mays, post-emergence, 312 h
Outline: as §2

[10] = test system: ivy-leaved morning glory (Ipomoea hederacea); test: Test G Post-Emergence Protocol; details: Ipomoea, post-emergence, 312 h
Outline: as §2

[11] = test system: giant foxtail (Setaria faberi); test: Test G Post-Emergence Protocol; details: Setaria faberi, post-emergence, 312 h
Outline: as §2

[12] = test system: velvetleaf (Abutilon theophrasti); test: Test G Post-Emergence Protocol; details: Abutilon theophrasti, post-emergence, 312 h
Outline: as §2

CN1C[C@@H](c2ccc(C(F)(F)F)cc2)[C@H](C(=O)Nc2ncc[nH]2)C1=O (racemic) [Compound 1536]
0%: pest or weed control at 15.625 g/ha ([1]; 15.625 g ai/ha, read-out: Pigweed, Redroot damage rating (100=total damage to plant; 0=no damage to plant)) | pest or weed control at 62.5 g/ha ([1]; 62.5 g ai/ha, 100=total damage to plant, 0=no damage to plant, read-out: plant damage rating, Pigweed, Redroot) | pest or weed control at 250 g/ha ([1]; 250 g ai/ha, read-out: Pigweed, Redroot damage rating (100=total damage to plant; 0=no damage to plant)) | pest or weed control at 15.625 g/ha ([2]; 15.625 g ai/ha, read-out: Barnyard grass damage rating (100=total damage to plant; 0=no damage to plant)) | pest or weed control at 62.5 g/ha ([2]; 62.5 g ai/ha, 100=total damage to plant, 0=no damage to plant, read-out: plant damage rating, Barnyardgrass) | pest or weed control at 250 g/ha ([2]; 250 g ai/ha, read-out: Barnyardgrass damage rating (100=total damage to plant; 0=no damage to plant)) | plant injury at 15.625 g/ha ([3]; 15.625 g ai/ha, read-out: Corn damage rating (100=total damage to plant; 0=no damage to plant)) | plant injury at 62.5 g/ha ([3]; 62.5 g ai/ha, 100=total damage to plant, 0=no damage to plant, read-out: plant damage rating, Corn) | plant injury at 250 g/ha ([3]; 250 g ai/ha, read-out: Corn damage rating (100=total damage to plant; 0=no damage to plant)) | pest or weed control at 15.625 g/ha ([4]; 15.625 g ai/ha, read-out: Morning-glory, Ivy-leaved damage rating (100=total damage to plant; 0=no damage to plant)) | pest or weed control at 62.5 g/ha ([4]; 62.5 g ai/ha, 100=total damage to plant, 0=no damage to plant, read-out: plant damage rating, Morningglory, Ivy-leaved) | pest or weed control at 250 g/ha ([4]; 250 g ai/ha, read-out: Morningglory, Ivy-leaved damage rating (100=total damage to plant; 0=no damage to plant)) | pest or weed control at 15.625 g/ha ([5]; 15.625 g ai/ha, read-out: Foxtail, Giant damage rating (100=total damage to plant; 0=no damage to plant)) | pest or weed control at 62.5 g/ha ([5]; 62.5 g ai/ha, 100=total damage to plant, 0=no damage to plant, read-out: plant damage rating, Foxtail, Giant) | pest or weed control at 250 g/ha ([5]; 250 g ai/ha, read-out: Foxtail, Giant damage rating (100=total damage to plant; 0=no damage to plant)) | pest or weed control at 15.625 g/ha ([6]; 15.625 g ai/ha, read-out: Velvetleaf damage rating (100=total damage to plant; 0=no damage to plant)) | pest or weed control at 62.5 g/ha ([6]; 62.5 g ai/ha, 100=total damage to plant, 0=no damage to plant, read-out: plant damage rating, Velvetleaf) | pest or weed control at 250 g/ha ([6]; 250 g ai/ha, read-out: Velvetleaf damage rating (100=total damage to plant; 0=no damage to plant)) | pest or weed control at 15.625 g/ha ([7]; 15.625 g ai/ha, evaluated after 13 days (100=total damage to plant; 0=no damage to plant), read-out: Pigweed, Redroot damage rating) | pest or weed control at 62.5 g/ha ([7]; 62.5 g ai/ha, evaluated after 13 days, read-out: Pigweed, Redroot damage rating (100=total damage to plant; 0=no damage to plant)) | pest or weed control at 250 g/ha ([7]; 250 g ai/ha, evaluated after 13 days, read-out: damage to plant, Pigweed, Redroot (100=total damage to plant; 0=no damage to plant)) | pest or weed control at 15.625 g/ha ([8]; 15.625 g ai/ha, evaluated after 13 days (100=total damage to plant; 0=no damage to plant), read-out: Barnyardgrass damage rating) | pest or weed control at 62.5 g/ha ([8]; 62.5 g ai/ha, evaluated after 13 days, read-out: Barnyardgrass damage rating (100=total damage to plant; 0=no damage to plant)) | pest or weed control at 250 g/ha ([8]; 250 g ai/ha, evaluated after 13 days, read-out: damage to plant, Barnyardgrass (100=total damage to plant; 0=no damage to plant)) | plant injury at 15.625 g/ha ([9]; 15.625 g ai/ha, evaluated after 13 days (100=total damage to plant; 0=no damage to plant), read-out: Corn damage rating) | plant injury at 62.5 g/ha ([9]; 62.5 g ai/ha, evaluated after 13 days, read-out: Corn damage rating (100=total damage to plant; 0=no damage to plant)) | plant injury at 250 g/ha ([9]; 250 g ai/ha, evaluated after 13 days, read-out: damage to plant, Corn (100=total damage to plant; 0=no damage to plant)) | pest or weed control at 15.625 g/ha ([10]; 15.625 g ai/ha, evaluated after 13 days (100=total damage to plant; 0=no damage to plant), read-out: Morningglory, Ivy-leaved damage rating) | pest or weed control at 62.5 g/ha ([10]; 62.5 g ai/ha, evaluated after 13 days, read-out: Morningglory, Ivy-leaved damage rating (100=total damage to plant; 0=no damage to plant)) | pest or weed control at 250 g/ha ([10]; 250 g ai/ha, evaluated after 13 days, read-out: damage to plant, Morningglory, Ivy-leaved (100=total damage to plant; 0=no damage to plant)) | pest or weed control at 15.625 g/ha ([11]; 15.625 g ai/ha, evaluated after 13 days (100=total damage to plant; 0=no damage to plant), read-out: Foxtail, Giant damage rating) | pest or weed control at 62.5 g/ha ([11]; 62.5 g ai/ha, evaluated after 13 days, read-out: Foxtail, Giant damage rating (100=total damage to plant; 0=no damage to plant)) | pest or weed control at 250 g/ha ([11]; 250 g ai/ha, evaluated after 13 days, read-out: damage to plant, Foxtail, Giant (100=total damage to plant; 0=no damage to plant)) | pest or weed control at 15.625 g/ha ([12]; 15.625 g ai/ha, evaluated after 13 days (100=total damage to plant; 0=no damage to plant), read-out: Velvetleaf damage rating) | pest or weed control at 62.5 g/ha ([12]; 62.5 g ai/ha, evaluated after 13 days, read-out: Velvetleaf damage rating (100=total damage to plant; 0=no damage to plant)) | pest or weed control at 250 g/ha ([12]; 250 g ai/ha, evaluated after 13 days, read-out: damage to plant, Velvetleaf (100=total damage to plant; 0=no damage to plant))

Source: patent US12077503B2, “Substituted cyclic amides and their use as herbicides” (FMC CORPORATION, priority 2015, dated 2024)
